# In patent publication US20220196635A1, “Fibrosis Assay” (Georgia Tech Research Corporation, priority 2020, published 2022):
# B1: plasmin: Human Plasmin (Enzyme Research Labs), positive control for fibrin degradation (protein, UniProt P00747 20-580; P00747 581-810, looked up)
# Plasmin heavy chain A: EPLDDYVNTQGASLFSVTKKQLGAGSIEECAAKCEEDEEFTCRAFQYHSKEQQCVIMAENRKSSIIIRMRDVVLFEKKVYLSECKTGNGKNYRGTMSKTKNGITCQKWSSTSPHRPRFSPATHPSEGLEENYCRNPDNDPQGPWCYTTDPEKRYDYCDILECEEECMHCSGENYDGKISKTMSGLECQAWDSQSPHAHGYIPSKFPNKNLKKNYCRNPDRELRPWCFTTDPNKRWELCDIPRCTTPPPSSGPTYQCLKGTGENYRGNVAVTVSGHTCQHWSAQTPHTHNRTPENFPCKNLDENYCRNPDGKRAPWCHTTNSQVRWEYCKIPSCDSSPVSTEQLAPTAPPELTPVVQDCYHGDGQSYRGTSSTTTTGKKCQSWSSMTPHRHQKTPENYPNAGLTMNYCRNPDADKGPWCFTTDPSVRWEYCNLKKCSGTEASVVAPPPVVLLPDVETPSEEDCMFGNGKGYRGKRATTVTGTPCQDWAAQEPHRHSIFTPETNPRAGLEKNYCRNPDGDVGGPWCYTTNPRKLYDYCDVPQCAAPSFDCGKPQVEPKKCPGR
# Plasmin light chain B: VVGGCVAHPHSWPWQVSLRTRFGMHFCGGTLISPEWVLTAAHCLEKSPRPSSYKVILGAHQEVNLEPHVQEIEVSRLFLEPTRKDIALLKLSSPAVITDKVIPACLPSPNYVVADRTECFITGWGETQGTFGAGLLKEAQLPVIENKVCNRYEFLNGRVQSTELCAGHLAGGTDSCQGDSGGPLVCFEKDKYILQGVTSWGLGCARPNKPGVYVRVSRFVTWIEGVMRNN
# modifications: Plasmin
# notes: Human Plasmin (Enzyme Research Labs), positive control for fibrin degradation
# Assays:
# [1] = test system: NHLF cells and diseased IPF cells (primary human lung fibroblasts) in fibrin scaffold; assay: Microscale cell-mediated fibrinolysis assay (ATPS-printed fibroblast-laden fibrin scaffolds, brightfield pixel intensity); assay type: cell-based; settings: for impact on fibroblast-mediated fibrinolysis: 400 μM pirfenidone, 0.4 μM nintedanib, 20 μM diethyl-pythiDC, NHLF and IPF cells; for rate of cell-mediated fibrinolysis (50% degradation time): 100 μM hydrogen peroxide
# Procedure: A stock solution of DEX (20% w/w dextran T500; Sigma) was prepared in phosphate buffered saline (PBS) on a rocker overnight. A stock solution of PEG (6% w/w, 35 k MW; Sigma) was prepared in fully supplemented culture media with 10% deionized water to balance osmolality. Both stock solutions were passed through a 0.22 um sterilizing syringe filter before storage. PEG working solutions were stored for up to 2 weeks at 4° C. Thrombin (Human Alpha Thrombin; Enzyme Research Labs) was also added to the PEG solution at a concentration of 0.1 U/mL immediately preceding experiments. Fibrinogen-DEX solutions were prepared by diluting fibrinogen stock solution (human fibrinogen 3; Enzyme Research Labs) to a final concentration of 4 mg/mL in a sterile solution of 4% 10×DMEM, 15% DEX stock solution (to a final concentration of 3% dextran), and 50% cell suspension in growth media. For all experiments excluding cell concentration evaluation, the cell suspension was diluted for 1000 cells per microliter in the final fibrinogen-DEX solution.
# Normal human lung fibroblasts (NHLF lot #0000580583; […] Cells were passaged at 80-90% confluence and were sub-cultured in 1:3 ratios by trypsinization. When at the desired confluence, cells were washed with PBS and 0.05% trypsin solution was added to the flask. Cells were incubated for 2 min, diluted with fibroblast growth media, and then harvested and centrifuged (200× g, 5 min) in a conical tube. The supernatant was aspirated and the cell pellet was re-suspended in serum-free culture media. When used in fibrin degradation experiments, cells were re-suspended at 2× the final desired concentration (1000 cells/ul unless otherwise indicated). All experiments were conducted with cells at or below passage 12. In all experiments, media was changed every 48 hours and any media additives (plasminogen, TGF-β1, drugs, etc.) were included.
# Working solutions of PEG with 0.1 U/mL of thrombin were warmed to 37° C. and pipetted into a 96-well plate. For production of droplets, fibrinogen-DEX solutions with cell suspension were maintained at 37° C. and pipetted directly into the PEG-thrombin media using either a manual pipette or a semi-automated 96-channel pipette (Viaflo-96; Integra). All assays utilized a volume of 1 μl unless otherwise noted. Following dispensing of the DEX phase, the plates were placed in an incubator at 37° C. for 30 min to allow the thrombin to enzymatically crosslink the fibrinogen into a fibrin matrix (FIG. 1A). The PEG-enriched media was then washed four times by removing, then replacing half of the media with PEG-free media. When applicable, the final media addition was supplemented with stimuli as detailed in Example 5 below. For the duration of each experiment, assay plates were imaged every 2 hours at 4× with an automated cell culture monitoring system (Incucyte S3; Essen Biosystems). After one day of culture, plasminogen (50 μg/mL) (Human Glu-Plasminogen; Enzyme Research Labs) was added as a 10× concentrated solution to each well in order to initiate assay degradation (FIG. 1B), unless otherwise noted for specific conditions. Fresh plasminogen was included with each subsequent media addition. Positive controls with active plasmin (1 U/ml) (Human Plasmin; Enzyme Research Labs) and negative controls without plasminogen were included in each experiment. As cells activated plasminogen, the fibrin scaffold progressively degraded as illustrated in FIG. 1C.
# After each experiment, brightfield images for every time point were downloaded in jpeg format from the automated cell culture monitoring system. Python's OpenCV library was implemented for the masking approach illustrated in FIG. 2A. First, a threshold was set at 50% of the maximum intensity (128 for 8-bit integer pixel values) in order to isolate the darker pixels of semi-opaque fibrin hydrogel from the background of the image. A closing morphological filter with a 25×25 kernel was then applied to each mask in order to remove noise. […]
# [2] = test system: human primary lung fibroblasts (NHLF, IPF) in fibrin micro-scaffolds; assay: Contracting scar-in-a-drop fibroplasia assay (final projected area of cell-ECM spheroids); assay type: cell-based
# Procedure: Human primary lung fibroblasts were used in all experiments presented in this paper. Unless otherwise noted, experiments utilized normal human lung fibroblasts (NHLF B lot #0000580583; Lonza) from a person with a history of smoking. For experiments evaluating donor variability, the following cells were utilized: NHLF A (NHLF lot #0000608197; Lonza) from a person, IPF A (IPF lot #0000627840; Lonza) from a person, and IPF B (IPF lot #6F5002; Lonza) from a person. All cells were cultured in fibroblast growth media (FGM; Lonza). Cells were passaged at 80-90% confluence and were sub-cultured in 1:3 ratios by trypsinization. When at the desired confluence, cells were washed with PBS and 0.05% trypsin solution was added to the flask. Cells were incubated for 2 min, and then harvested and centrifuged ([…], 5 min) in a conical tube. The supernatant was aspirated and the cell pellet was re-suspended in FBS-free culture media. When used in fibrin degradation experiments, cells were re-suspended at 2× the final desired concentration (2500 cells/ul unless otherwise indicated). To promote collagen production and contraction in addition to fibrin degradation, serum (bovine or human) were added at 2% or higher up to about 10%. Higher cell densities (about 2500 cells/ul and higher up to about 10,000 cells/ul) also promote collagen production. All experiments were conducted with cells at or below passage 8 except for high passage experiments conducted at passage 12. In all experiments, media was changed every 48 hours and any media additives (plasminogen, TGF-β1, drugs, etc.,) were included.
# ATPS printing of fibrin micro-scaffolds has previously described above. Briefly, working solutions of PEG with 0.1 U/mL of thrombin were warmed to 37° C. and pipetted into a 96-well plate. For production of droplets, fibrinogen-DEX solutions with cell suspension were maintained at 37° C. and 4 μl per assay (unless otherwise noted) was pipetted directly into the PEG-thrombin media using a semi-automated repeater pipette (Repeater E3X; Eppendorf). Following dispensing of the DEX phase, the plates were placed in an ambient air incubator at 37° C. for 30 min to allow the thrombin to enzymatically crosslink the fibrinogen into a fibrin matrix (FIG. 6A). The PEG-enriched media was removed using a 12-channel micropipette and replaced with 100 μl of fully supplemented media in each well. When applicable, this media addition was supplemented with stimuli as detailed in example 17 below. For the duration of each experiment, assay plates were imaged every 2 hours at 4× with an automated cell culture monitoring system (Incucyte S3; Sartorius). As the assay proceeded, the fibroblasts progressively remodeled the fibrin scaffold as illustrated in FIG. 6C.
# After each experiment, the final projected areas of the cell-ECM spheroids were determined from brightfield images taken at the final time point using a benchtop imaging system (2× objective; EVOS M7000; ThermoFisher). These images were then segmented through a process of pixel classification, thresholding, and morphological filtering in order to isolate the cell-ECM construct area from the background.
# Pixel classification implemented Ilastic, a freely available image classification tool developed by the European Molecular Biology Laboratory. Ilastik's pixel classification utility implements a random forest classifier for quick and robust segmentation. In order to train the classifier, 10 characteristic images were selected to include different stages of ECM remodeling. In this step, each individual pixel is assigned a probability for belonging to layers for the background or the cell-ECM construct. Ilastik enables interactive training of the random forest classifier via user annotations of the training images. […]
# [3] = TGF-β1 treated (2 ng/mL), NHLF and IPF cells, 10 μM TM5275, 500 μM pirfenidone
molecule,measurement,setting,value
CCOC(=O)c1ccc(-c2ncc(C(=O)OCC)s2)nc1 [diethyl-pythiDC],impact on fibroblast-mediated fibrinolysis,[1],significantly (P<0.05) delayed fibrinolysis
Cc1ccc(=O)n(-c2ccccc2)c1 [pirfenidone],final area of spheroids,[2]; [3],significant decrease in final area
same,impact on fibroblast-mediated fibrinolysis,[1],did not show a significant impact on fibrinolysis
OO [hydrogen peroxide],rate of cell-mediated fibrinolysis (50% degradation time),[1]; conditions that included TGF-β1 (2 ng/ml),no significant difference
same,rate of cell-mediated fibrinolysis (50% degradation time),[1]; no TGF-β1,highly significant decreases in the rates of fibrinolysis
COC(=O)c1ccc2c(c1)NC(=O)/C2=C(\Nc1ccc(N(C)C(=O)CN2CCN(C)CC2)cc1)c1ccccc1 [nintedanib],final area of spheroids,"[2]; all conditions (with and without TGF-β1; NHLF and IPF cells), 1 μM nintedanib",significant decreases in final area for all conditions
same,"final projected area, fibroblast donor variability","[2]; nintedanib, 2 normal and 2 IPF donors, one IPF donor not statistically significant (p<0.3)",reduced the final projected area
same,impact on fibroblast-mediated fibrinolysis,[1],did not show a significant impact on fibrinolysis
O=C(COCC(=O)N1CCN(C(c2ccccc2)c2ccccc2)CC1)Nc1ccc(Cl)cc1C(=O)O [TM5275],final area of spheroids,[2]; [3],decreased the spheroid area
same,spheroid area,"[2]; conditions that omitted TGF-β1, 10 μM TM5275",not in conditions that omitted TGF-β1
B1,"matrix degradation, positive control",[1]; exogenous plasmin 1 U/ml,rapid matrix degradation
